US20110081429A1, “COMPOSITION FOR EXTERNAL USE” (priority 2008, published 2011)
“Also recorded” adds a separate entry of the source.

Test system: IGF-1 secretion in the skin
Assay: IGF-1 concentration in the skin after application of essential oil and/or AMP (Experimental Example 1)
Assay type: in vivo, hairless mice (Hos: HR-1)
Settings: hairless mice, 400 μl on back skin (3 cm×5 cm), 30 minutes after the application; FIG. 1a-1c
Protocol: In order to examine how the effect of essential oils on the amount of IGF-1 secretion in the skin is affected by AMP, the following compositions containing an essential oil and AMP (Examples 1 to 3 and Comparative Examples 1 to 5) were prepared by a standard method. The pH of each composition was adjusted with NaOH such that the pH ranged from 6.5 to 7.0.
400 μl of a test solution was applied to the skin on the back (3 cm×5 cm) of hairless mice (Hos: HR-1, Japan SLC, Inc., female, 6 to 8 weeks age). 30 minutes after the application, the skin was extracted and frozen-crushed. Then, the IGF-1 concentration in the skin was measured using Quantikine (registered trademark) Mouse IGF-1 Immunoassay (R&D Systems, Inc.).
The composition shown in Table 1 was used as a test solution.
The secreted IGF-1 concentration was measured according to the method described in Experiment 1-1. The composition shown in Table 1 above was used as a test solution.

For `Nc1ncnc2c1ncn2[C@@H]1O[C@H](COP(=O)(O)O)[C@@H](O)[C@H]1O` [AMP, adenosine-5′-monophosphate], the “stimulatory effect on IGF-1 secretion (IGF-1 concentration in the skin)” value was “did not produce a stimulatory effect on IGF-1 secretion when used alone; also recorded: neither AMP or Scotch pine needle oil stimulated IGF-1 secretion when used alone; also recorded: did not produce a sufficient stimulatory effect on IGF-1 secretion”.
